According to patent US11109593B2, “Isoxazolin-5-one derivative and herbicide containing same as active ingredient” (HOKKO CHEMICAL INDUSTRY CO., LTD., priority 2017, dated 2021):

Columns and labels:
Format in all cases: in vivo
Echinochloa crus-galli [1] = test: Test Example 1: herbicidal effect test by treatment of rice paddy soil (immediately after seeding); conditions: 120 g/10a active ingredient, dry weight vs untreated area, 14 days after treatment; for pest or weed control at 1200 g/ha: in Echinochloa crus-galli, 336 h, read-out: Herbicidal rate (%) Echinochloa crus-galli
Procedure, shortened: (§1)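 Applied at 120 g a.i./10 ares as diluted emulsion dropped into flooded (~3 cm) paddy soil pots right after sowing seeds 0–1 cm deep; greenhouse, two replicates. At day 14, dry weight of treated versus untreated plants gives % herbicidal rate.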

Scirpus juncoides [2] = test: as above; conditions: 120 g/10a active ingredient, dry weight vs untreated area, 14 days after treatment; for pest or weed control at 1200 g/ha: in Schoenoplectiella juncoides, 336 h, read-out: Herbicidal rate (%) Scirpus juncoides
Procedure, shortened: as §1

[3] = system: broad leaf weeds (Lindernia pyxidaria and Monochoria vaginalis); test: as above; conditions: 120 g/10a active ingredient, dry weight vs untreated area, 14 days after treatment; for pest or weed control at 1200 g/ha: 336 h
Procedure, shortened: as §1

Echinochloa crus-galli [4] = test: Test Example 2: herbicidal effect test by treatment during growing period in paddy rice cultivation (seven days after seeding); conditions: 120 g/10a active ingredient, assessed 14 days after treatment, dry weight vs untreated area; for pest or weed control at 1200 g/ha: Echinochloa crus-galli, 336 h, read-out: herbicidal rate (%) Echinochloa crus-galli
Procedure, shortened: (§2)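 Greenhouse flooded-pot test, seeds sown in puddled paddy soil; emulsion applied into water 7 d after seeding, 120 g a.i./10 a. Dry-weight-based herbicidal rate at 14 d, n=2.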

Scirpus juncoides [5] = test: as above; conditions: 120 g/10a active ingredient, assessed 14 days after treatment, dry weight vs untreated area; for pest or weed control at 1200 g/ha: Schoenoplectiella juncoides, 336 h, read-out: herbicidal rate (%) Scirpus juncoides
Procedure, shortened: as §2

[6] = system: broad leaf weeds (Lindernia pyxidaria and Monochoria vaginalis); test: as above; conditions: 120 g/10a active ingredient, assessed 14 days after treatment, dry weight vs untreated area; for pest or weed control at 1200 g/ha: 336 h
Procedure, shortened: as §2

Amaranthus viridis [7] = test: Test Example 3: herbicidal effect test by treatment of dry field farming soil (one day after seeding); conditions: 120 g/10a active ingredient, evaluated 14 days after treatment; for pest or weed control at 1200 g/ha: Amaranthus viridis, 336 h, read-out: herbicidal rate, Amaranthus viridis
Procedure, shortened: (§3)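 Compound emulsions are sprayed on the soil surface one day after sowing (120 g a.i. per 10 ares) before weeds emerge. Effect is expressed as percent dry-weight reduction versus untreated controls 14 days post-treatment.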

Chenopodium album [8] = test: as above; conditions: 120 g/10a active ingredient, evaluated 14 days after treatment; for pest or weed control at 1200 g/ha: Chenopodium album, 336 h, read-out: herbicidal rate, Chenopodium album
Procedure, shortened: as §3

Echinochloa crus-galli [9] = test: as above; conditions: 120 g/10a active ingredient, evaluated 14 days after treatment; for pest or weed control at 1200 g/ha: Echinochloa crus-galli, 336 h, read-out: herbicidal rate, Echinochloa crus-galli
Procedure, shortened: as §3

southern crabgrass [10] = test: as above; conditions: 120 g/10a active ingredient, evaluated 14 days after treatment; for pest or weed control at 1200 g/ha: Digitaria ciliaris, 336 h, read-out: herbicidal rate, southern crabgrass
Procedure, shortened: as §3

Amaranthus viridis [11] = test: Test Example 4: herbicidal effect test by treatment of leave and stem in dry field farming (seven days after seeding); conditions: 120 g/10a active ingredient, emulsion sprayed seven days after seeding, evaluated 14 days after treatment; for pest or weed control at 1200 g/ha: Amaranthus viridis, 336 h, read-out: herbicidal effect (herbicidal rate), Amaranthus viridis
Procedure, shortened: (§4)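 Duplicate pots were scored 14 days post-spray by dry weight, herbicidal rate = {1 − treated/untreated average dry weight} × 100. The water-diluted emulsion, equivalent to 120 g active ingredient per 10 ares in 100 L, was applied seven days after sowing 20 seeds each into the upper 1 cm of alluvial soil.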

Chenopodium album [12] = test: as above; conditions: 120 g/10a active ingredient, emulsion sprayed seven days after seeding, evaluated 14 days after treatment; for pest or weed control at 1200 g/ha: Chenopodium album, 336 h, read-out: herbicidal effect (herbicidal rate), Chenopodium album
Procedure, shortened: as §4

Echinochloa crus-galli [13] = test: as above; conditions: 120 g/10a active ingredient, emulsion sprayed seven days after seeding, evaluated 14 days after treatment; for pest or weed control at 1200 g/ha: Echinochloa crus-galli, 336 h, read-out: herbicidal effect (herbicidal rate), Echinochloa crus-galli
Procedure, shortened: as §4

southern crabgrass [14] = test: as above; conditions: 120 g/10a active ingredient, emulsion sprayed seven days after seeding, evaluated 14 days after treatment; for pest or weed control at 1200 g/ha: Digitaria ciliaris, 336 h, read-out: herbicidal effect (herbicidal rate), southern crabgrass
Procedure, shortened: as §4

[15] = Monochoria vaginalis, read-out: Herbicidal rate (%) Monochoria vaginalis
[16] = in Lindernia, Lindernia pyxidaria, read-out: Herbicidal rate (%) Lindernia pyxidaria
[17] = Lindernia pyxidaria, read-out: herbicidal rate (%) Lindernia pyxidaria
[18] = Monochoria vaginalis, read-out: herbicidal rate (%) Monochoria vaginalis

Row | SMILES | Herbicidal rate (%) Echinochloa crus-galli (Echinochloa crus-galli [1]) | Herbicidal rate (%) Scirpus juncoides (Scirpus juncoides [2]) | Herbicidal rate (%) Lindernia pyxidaria ([3]; Lindernia pyxidaria) | Herbicidal rate (%) Monochoria vaginalis ([3]; Monochoria vaginalis) | Herbicidal rate (%) Echinochloa crus-galli (Echinochloa crus-galli [4]) | Herbicidal rate (%) Scirpus juncoides (Scirpus juncoides [5]) | Herbicidal rate (%) Lindernia pyxidaria ([6]; Lindernia pyxidaria) | Herbicidal rate (%) Monochoria vaginalis ([6]; Monochoria vaginalis) | herbicidal rate, Amaranthus viridis (Amaranthus viridis [7]) | herbicidal rate, Chenopodium album (Chenopodium album [8]) | herbicidal rate, Echinochloa crus-galli (Echinochloa crus-galli [9]) | herbicidal rate, southern crabgrass (southern crabgrass [10]) | herbicidal effect (herbicidal rate), Amaranthus viridis (Amaranthus viridis [11]) | herbicidal effect (herbicidal rate), Chenopodium album (Chenopodium album [12]) | herbicidal effect (herbicidal rate), Echinochloa crus-galli (Echinochloa crus-galli [13]) | herbicidal effect (herbicidal rate), southern crabgrass (southern crabgrass [14]) | also measured
1 | CCC(C)n1oc(=O)c(Cc2ccccc2NS(=O)(=O)C(F)(F)F)c1C (centres unmarked) [Compound 1-102, 1,1,1-trifluoro-N-[2-[(3-methyl-5-oxo-2-sec-butyl-isoxazol-4-yl)methyl]phenyl]methanesulfonamide] | – | – | – | – | – | – | – | – | – | – | – | – | – | – | – | – | pest or weed control at 1200 g/ha (Echinochloa crus-galli [1]): 100%; pest or weed control at 1200 g/ha (Scirpus juncoides [2]): 100%; pest or weed control at 1200 g/ha [3, 15]: 100%; pest or weed control at 1200 g/ha [3, 16]: 100%; pest or weed control at 1200 g/ha (Echinochloa crus-galli [4]): 90%; pest or weed control at 1200 g/ha (Scirpus juncoides [5]): 90%; pest or weed control at 1200 g/ha [6, 17]: 60%; pest or weed control at 1200 g/ha [6, 18]: 90%; pest or weed control at 1200 g/ha (Amaranthus viridis [7]): 80%; pest or weed control at 1200 g/ha (Chenopodium album [8]): 80%; pest or weed control at 1200 g/ha (Echinochloa crus-galli [9]): 90%; pest or weed control at 1200 g/ha (southern crabgrass [10]): 90%; pest or weed control at 1200 g/ha (Amaranthus viridis [11]): 40%; pest or weed control at 1200 g/ha (Chenopodium album [12]): 0%; pest or weed control at 1200 g/ha (Echinochloa crus-galli [13]): 90%; pest or weed control at 1200 g/ha (southern crabgrass [14]): 80%
2 | CCC(CC)n1oc(=O)c(Cc2ccccc2N(S(=O)(=O)C(F)(F)F)S(=O)(=O)C(F)(F)F)c1C [Compound 1-965] | 100% | 80% | 80% | 100% | 100% | 80% | 50% | 80% | 100% | 100% | 100% | 100% | 90% | 40% | 90% | 90% | –
3 | Cc1c(Cc2ccccc2NS(=O)(=O)C(F)(F)F)c(=O)on1C(c1ccccc1)C(C)C (centres unmarked) [Compound 1-213] | 100% | 90% | 90% | 90% | 90% | 80% | 70% | 80% | 100% | 100% | 100% | 100% | 40% | 50% | 90% | 90% | –
4 | Cc1c(Cc2ccccc2N(C(=O)C2CCCCC2)S(=O)(=O)C(F)(F)F)c(=O)on1C(C)(C)C [Compound 1-431] | 90% | 90% | 90% | 90% | 90% | 90% | 90% | 90% | 90% | 90% | 90% | 90% | 40% | 40% | 90% | 90% | –
5 | CCS(=O)(=O)N(c1ccccc1Cc1c(C)n(C(C)COC)oc1=O)S(=O)(=O)C(F)(F)F (centres unmarked) [Compound 1-915] | 90% | 90% | 90% | 90% | 90% | 90% | 90% | 90% | 90% | 90% | 90% | 90% | 40% | 40% | 90% | 90% | –
6 | C=CCOC(=O)N(c1ccccc1Cc1c(C)n(C(C)c2ccccc2)oc1=O)S(=O)(=O)C(F)(F)F (centres unmarked) [Compound 1-710] | 90% | 90% | 90% | 90% | 90% | 90% | 90% | 90% | 90% | 90% | 90% | 90% | 40% | 40% | 90% | 90% | –
7 | CCC(C)n1oc(=O)c(Cc2ccccc2N(S(=O)(=O)C(F)(F)F)S(=O)(=O)C(F)(F)F)c1C (centres unmarked) [Compound 1-964, 1,1,1-trifluoro-N-[2-[(3-methyl-5-oxo-2-sec-butyl-isoxazol-4-yl)methyl]phenyl]-N-(trifluoromethylsulfonyl)methanesulfonamide] | – | – | – | – | – | – | – | – | – | – | – | – | – | – | – | – | pest or weed control at 1200 g/ha (Echinochloa crus-galli [1]): 90%; pest or weed control at 1200 g/ha (Scirpus juncoides [2]): 90%; pest or weed control at 1200 g/ha [3, 15]: 100%; pest or weed control at 1200 g/ha [3, 16]: 100%; pest or weed control at 1200 g/ha (Echinochloa crus-galli [4]): 90%; pest or weed control at 1200 g/ha (Scirpus juncoides [5]): 90%; pest or weed control at 1200 g/ha [6, 17]: 90%; pest or weed control at 1200 g/ha [6, 18]: 90%; pest or weed control at 1200 g/ha (Amaranthus viridis [7]): 90%; pest or weed control at 1200 g/ha (Chenopodium album [8]): 90%; pest or weed control at 1200 g/ha (Echinochloa crus-galli [9]): 90%; pest or weed control at 1200 g/ha (southern crabgrass [10]): 90%; pest or weed control at 1200 g/ha (Amaranthus viridis [11]): 40%; pest or weed control at 1200 g/ha (Chenopodium album [12]): 0%; pest or weed control at 1200 g/ha (Echinochloa crus-galli [13]): 90%; pest or weed control at 1200 g/ha (southern crabgrass [14]): 60%
8 | C=CC(C)n1oc(=O)c(Cc2ccccc2NS(=O)(=O)C(F)(F)F)c1C (centres unmarked) [Compound 1-136] | 100% | 90% | 80% | 70% | 90% | 90% | 60% | 70% | 100% | 60% | 100% | 100% | 60% | 60% | 70% | 70% | –
